Measured values published in US20250127904A1, “SIGLEC LIGANDS, CONJUGATES, AND METHODS OF USE THEREOF” (Osprey Biopharmaceuticals, Inc., priority 2023, published 2025).
pKd: −log10 of the molar value.

Assays:
[1] = target: T1, biotinylated mouse siglec-2-Fc-Avi (Mus musculus, UniProt P35329); experiment: SPR binding to mouse siglec-2/CD22; settings: steady-state analysis, read-out: Mouse CD22 affinity
T1 construct: made in house
T1 sequence (P35329 22-708 limits assumed): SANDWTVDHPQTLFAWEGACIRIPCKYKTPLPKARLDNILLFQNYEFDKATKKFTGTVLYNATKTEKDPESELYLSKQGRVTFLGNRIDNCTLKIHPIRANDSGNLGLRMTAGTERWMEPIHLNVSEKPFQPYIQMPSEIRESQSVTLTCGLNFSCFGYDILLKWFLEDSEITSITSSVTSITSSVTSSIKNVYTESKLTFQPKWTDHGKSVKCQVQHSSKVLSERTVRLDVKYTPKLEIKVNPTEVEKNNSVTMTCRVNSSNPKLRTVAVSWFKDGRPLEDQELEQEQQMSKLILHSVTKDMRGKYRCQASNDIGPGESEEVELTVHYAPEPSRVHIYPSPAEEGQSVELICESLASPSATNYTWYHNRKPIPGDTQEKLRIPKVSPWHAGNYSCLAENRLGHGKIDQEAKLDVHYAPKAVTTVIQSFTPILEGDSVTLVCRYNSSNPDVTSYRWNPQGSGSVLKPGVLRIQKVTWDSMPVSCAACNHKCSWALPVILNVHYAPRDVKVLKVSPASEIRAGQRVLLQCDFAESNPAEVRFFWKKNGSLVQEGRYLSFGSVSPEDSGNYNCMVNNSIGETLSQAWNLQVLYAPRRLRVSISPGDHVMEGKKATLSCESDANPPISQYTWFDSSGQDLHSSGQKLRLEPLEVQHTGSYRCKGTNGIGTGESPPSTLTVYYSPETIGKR
Method: (§1) The following proteins were used for CD22 ligand binding: biotinylated human siglec-2/CD22 protein-His-Avitag (Acro Biosystems, Cat #SI2-H82E3), biotinylated mouse siglec-2-Fc-Avi (in-house production), and recombinant cynomolgus siglec-2/CD22 His-tag (R&D systems, Cat #9864-SL-050). Prior to immobilization, CD22 proteins were treated with SialoExo (Genovis, Cat #G1-SM1-020) for 4 hours at 37° C. to remove native sialic acid residues.
(§2) Capture of biotinylated CD22 constructs was performed using a Cytiva SA chip (BR100398) on a Biacore 8K instrument. Human siglec 2 was immobilized on channels 1-4 and mouse siglec 2 on channels 5-8 on the active flow cell (2) and the reference flow cell (1) was immobilized with biotinylated human FGFR2 Fc Avi, an unrelated protein, to account for any nonspecific binding. Human siglec 2 and Mouse siglec 2 were diluted in running buffer to 20 μg/mL and injected on the active flow cell (2) for 300 seconds at 5 μL/min, yielding about 3500 RU of captured constructs.
(§3) Binding experiments of siglec-ligand conjugated proteins or Siglec ligand compounds were performed on the surfaces prepared above in 10 mM HEPES, 150 mM NaCl, 0.05% Tween-20, pH 7.5, 1% DMSO as the running buffer. Compounds were serially diluted in running buffer from 50 μM to 97.6 nM and injected over both the reference and active flow cells for 90 seconds at 30 μL/min. The compounds were then allowed to dissociate from the surface for 120 seconds. No regeneration was required as the compounds completely dissociated from the surface after 30 seconds. Solvent correction was performed using 0.5, 1, 1.5, and 2% DMSO spike into running buffer without DMSO. Data was analyzed using steady-state analysis in Biacore Insight Evaluation Software, version 3.0.

[2] = target: T2, biotinylated human siglec-2/CD22 protein-His-Avitag (Homo sapiens, UniProt P20273); experiment: SPR binding to human siglec-2/CD22; settings: steady-state analysis, read-out: Human CD22 affinity
T2 construct: purchased Acro Biosystems SI2-H82E3
T2 sequence (P20273 20-847): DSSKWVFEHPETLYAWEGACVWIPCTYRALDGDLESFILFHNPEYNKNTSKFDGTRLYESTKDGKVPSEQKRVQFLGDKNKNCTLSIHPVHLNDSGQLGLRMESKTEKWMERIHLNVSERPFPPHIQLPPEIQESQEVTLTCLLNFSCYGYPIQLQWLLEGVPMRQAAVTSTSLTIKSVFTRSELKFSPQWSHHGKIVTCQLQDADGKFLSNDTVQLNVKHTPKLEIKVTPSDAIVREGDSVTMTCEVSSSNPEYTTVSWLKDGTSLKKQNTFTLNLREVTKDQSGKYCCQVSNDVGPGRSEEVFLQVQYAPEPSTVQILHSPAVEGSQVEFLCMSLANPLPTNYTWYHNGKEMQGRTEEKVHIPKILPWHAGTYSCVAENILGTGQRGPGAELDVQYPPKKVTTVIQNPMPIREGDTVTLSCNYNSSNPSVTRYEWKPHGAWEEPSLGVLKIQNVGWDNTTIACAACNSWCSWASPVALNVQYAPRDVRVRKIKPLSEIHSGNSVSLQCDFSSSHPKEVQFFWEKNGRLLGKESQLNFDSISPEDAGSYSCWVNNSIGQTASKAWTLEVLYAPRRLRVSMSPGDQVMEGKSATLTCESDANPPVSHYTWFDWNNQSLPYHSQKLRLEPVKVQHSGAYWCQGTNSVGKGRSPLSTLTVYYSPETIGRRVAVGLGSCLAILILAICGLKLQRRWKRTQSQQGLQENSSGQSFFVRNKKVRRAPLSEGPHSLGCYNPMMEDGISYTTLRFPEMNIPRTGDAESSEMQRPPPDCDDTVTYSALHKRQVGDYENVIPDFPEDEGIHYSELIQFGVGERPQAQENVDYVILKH
Method: as §1, §2, §3

[3] = target: recombinant cynomolgus siglec-2/CD22 His-tag (Macaca fascicularis, UniProt A0A2K5WCZ6); experiment: SPR binding to cynomolgus siglec-2/CD22; settings: steady-state analysis, read-out: Cyno CD22 affinity
Method: as §1
Surface preparation for cyno CD22 protein consisted of amine coupling to Cytiva CM5 chip (Cytiva, Cat #BR100530) using the Cytiva amine coupling kit Type 2 (Cytiva, Cat #BR100633). Following the standard amine coupling protocols, EDC and NHS from the kit were mixed 1:1 and injected over flow cells 1 and 2. Cyno CD22 was then immobilized by injecting 10 μg/mL in Sodium Acetate, pH 5.5 onto flow cell (2) for 420 seconds at 10 uL/min, yielding approximately 2500 RU of captured protein. Any active carboxy groups were then capped with 1M Ethanolamine, pH 8.5 for 420 s on flow cells 1 and 2.
as §3

Sequence of recombinant cynomolgus siglec-2/CD22 His-tag (A0A2K5WCZ6 entry or part of it): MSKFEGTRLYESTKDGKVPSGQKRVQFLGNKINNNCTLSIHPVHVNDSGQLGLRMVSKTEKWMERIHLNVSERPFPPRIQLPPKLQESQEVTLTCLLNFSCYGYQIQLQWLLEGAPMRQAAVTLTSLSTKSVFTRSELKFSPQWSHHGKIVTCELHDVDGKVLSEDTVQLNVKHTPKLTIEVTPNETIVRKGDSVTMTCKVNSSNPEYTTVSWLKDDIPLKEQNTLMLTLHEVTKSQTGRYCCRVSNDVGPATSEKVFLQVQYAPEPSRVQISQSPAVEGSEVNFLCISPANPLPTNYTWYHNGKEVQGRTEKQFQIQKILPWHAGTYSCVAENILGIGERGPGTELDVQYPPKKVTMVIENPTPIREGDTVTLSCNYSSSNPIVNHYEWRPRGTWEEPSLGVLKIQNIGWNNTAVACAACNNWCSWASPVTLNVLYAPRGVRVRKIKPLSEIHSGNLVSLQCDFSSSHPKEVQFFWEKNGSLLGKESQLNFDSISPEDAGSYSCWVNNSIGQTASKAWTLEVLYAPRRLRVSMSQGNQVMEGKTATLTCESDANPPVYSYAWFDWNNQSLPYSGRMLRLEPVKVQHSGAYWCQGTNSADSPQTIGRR

Row | SMILES | pKd [1] | pKd [2] | pKd [3]
1 | C#CCCCCCCCCOc1ccc(CC(=O)NC[C@@H](O)[C@@H](O)[C@@H]2O[C@@](OCc3ccccc3)(C(=O)O)C[C@H](O)[C@H]2NC(=O)CO)cc1 [Compound 7, (2R,4S,5R,6R)-2-(benzyloxy)-6-((1R,2R)-3-(2-(4-(dec-9-yn-1-yloxy)phenyl)acetamido)-1,2-dihydroxypropyl)-4-hydroxy-5-(2-hydroxyacetamido)tetrahydro-2H-pyran-2-carboxylic acid] | 5.00 to 6.00 | 5.00 to 6.00 | 5.00 to 6.00
2 | C#Cc1ccc(CC(=O)NC[C@@H](O)[C@@H](O)[C@@H]2O[C@@](OCc3ccc(O)cc3)(C(=O)O)C[C@H](O)[C@H]2NC(=O)CO)cc1 [Compound 3, (2R,4S,5R,6R)-6-((1R,2R)-3-(2-(4-ethynylphenyl)acetamido)-1,2-dihydroxypropyl)-4-hydroxy-5-(2-hydroxyacetamido)-2-((4-hydroxybenzyl)oxy)tetrahydro-2H-pyran-2-carboxylic acid] | 5.00 to 6.00 | > 6.00 | > 6.00
3 | C#CCO[C@H]1C[C@](OCc2ccccc2)(C(=O)O)O[C@@H]([C@H](O)[C@H](O)CNC(=O)Cc2ccc(Cl)cc2)[C@@H]1NC(=O)CO [Compound 18, (2R,4S,5R,6R)-2-(benzyloxy)-6-((1R,2R)-3-(2-(4-chlorophenyl)acetamido)-1,2-dihydroxypropyl)-5-(2-hydroxyacetamido)-4-(prop-2-yn-1-yloxy)tetrahydro-2H-pyran-2-carboxylic acid] | 5.00 to 6.00 | 5.00 to 6.00 | 5.00 to 6.00
4 | C#CCOCCCCCCCc1ccc(CC(=O)NC[C@@H](O)[C@@H](O)[C@@H]2O[C@@](OCc3ccccc3)(C(=O)O)C[C@H](O)[C@H]2NC(=O)CO)cc1 [Compound 13, (2R,4S,5R,6R)-2-(benzyloxy)-6-((1R,2R)-1,2-dihydroxy-3-(2-(4-(7-(prop-2-yn-1-yloxy)heptyl)phenyl)acetamido)propyl)-4-hydroxy-5-(2-hydroxyacetamido)tetrahydro-2H-pyran-2-carboxylic acid] | 5.00 to 6.00 | 5.00 to 6.00 | 5.00 to 6.00
5 | C#CCO[C@H]1C[C@](OCCCCCC(=O)O)(C(=O)O)O[C@@H]([C@H](O)[C@H](O)CNC(=O)Cc2ccc(Cl)cc2)[C@@H]1NC(=O)CO [Compound 20, (2R,4S,5R,6R)-2-((5-carboxypentyl)oxy)-6-((1R,2R)-3-(2-(4-chlorophenyl)acetamido)-1,2-dihydroxypropyl)-5-(2-hydroxyacetamido)-4-(prop-2-yn-1-yloxy)tetrahydro-2H-pyran-2-carboxylic acid] | 5.00 to 6.00 | 5.00 to 6.00 | 5.00 to 6.00
6 | O=C(O)CCCCCCCCC#Cc1ccc(CC(=O)NC[C@@H](O)[C@@H](O)[C@@H]2O[C@@](OCc3ccccc3)(C(=O)O)C[C@H](O)[C@H]2NC(=O)CO)cc1 [Compound 14, (2R,4S,5R,6R)-2-(benzyloxy)-6-((1R,2R)-3-(2-(4-(10-carboxydec-1-yn-1-yl)phenyl)acetamido)-1,2-dihydroxypropyl)-4-hydroxy-5-(2-hydroxyacetamido)tetrahydro-2H-pyran-2-carboxylic acid] | > 6.00 | 5.00 to 6.00 | 5.00 to 6.00

Further lines, results first:

Row | pKd [1] | pKd [2] | pKd [3] | SMILES
7 | 5.00 to 6.00 | > 6.00 | > 6.00 | CCCNC(=O)CCOCCOCCOCCOCCn1cc(-c2ccc(CC(=O)NC[C@@H](O)[C@@H](O)[C@@H]3O[C@@](OCCCCCCNc4c(NCCOC)c(=O)c4=O)(C(=O)O)C[C@H](O)[C@H]3NC(=O)CO)cc2)nn1 [Compound 53, (2R,4S,5R,6R)-6-((1R,2R)-1,2-dihydroxy-3-(2-(4-(1-(15-oxo-3,6,9,12-tetraoxa-16-azanonadecyl)-1H-1,2,3-triazol-4-yl)phenyl)acetamido)propyl)-4-hydroxy-5-(2-hydroxyacetamido)-2-((6-((2-((2-methoxyethyl)amino)-3,4-dioxocyclobut-1-en-1-yl)amino)hexyl)oxy)tetrahydro-2H-pyran-2-carboxylic acid]
8 | 5.00 to 6.00 | > 6.00 | > 6.00 | C#Cc1ccc(CC(=O)NC[C@@H](O)[C@@H](O)[C@@H]2O[C@@](OCCCCCCOC)(C(=O)O)C[C@H](O)[C@H]2NC(=O)CO)cc1 [Compound 11, (2R,4S,5R,6R)-6-((1R,2R)-3-(2-(4-ethynylphenyl)acetamido)-1,2-dihydroxypropyl)-4-hydroxy-5-(2-hydroxyacetamido)-2-((6-methoxyhexyl)oxy)tetrahydro-2H-pyran-2-carboxylic acid]
9 | < 5.00 | 5.00 to 6.00 | 5.00 to 6.00 | C#CCOCCOCCOCCC(=O)N[C@H]1[C@H]([C@H](O)[C@H](O)CNC(=O)Cc2ccc(Cl)cc2)O[C@@](OCc2ccccc2)(C(=O)O)C[C@@H]1O [Compound 21, (2R,4S,5R,6R)-2-(benzyloxy)-6-((1R,2R)-3-(2-(4-chlorophenyl)acetamido)-1,2-dihydroxypropyl)-4-hydroxy-5-(3-(2-(2-(prop-2-yn-1-yloxy)ethoxy)ethoxy)propanamido)tetrahydro-2H-pyran-2-carboxylic acid]
10 | 5.00 to 6.00 | 5.00 to 6.00 | 5.00 to 6.00 | CCCNC(=O)CCOCCOCCOCCOCCn1cc(-c2ccc(CC(=O)NC[C@@H](O)[C@@H](O)[C@@H]3O[C@@](OCCCCCCOC)(C(=O)O)C[C@H](O)[C@H]3NC(=O)CO)cc2)nn1 [Compound 52, (2R,4S,5R,6R)-6-((1R,2R)-1,2-dihydroxy-3-(2-(4-(1-(15-oxo-3,6,9,12-tetraoxa-16-azanonadecyl)-1H-1,2,3-triazol-4-yl)phenyl)acetamido)propyl)-4-hydroxy-5-(2-hydroxyacetamido)-2-((6-methoxyhexyl)oxy)tetrahydro-2H-pyran-2-carboxylic acid]
11 | 5.00 to 6.00 | 5.00 to 6.00 | 5.00 to 6.00 | C#Cc1ccc(CC(=O)NC[C@@H](O)[C@@H](O)[C@@H]2O[C@@](OCCOCCOCCOC)(C(=O)O)C[C@H](O)[C@H]2NC(=O)CO)cc1 [Compound 25, (2R,4S,5R,6R)-6-((1R,2R)-3-(2-(4-ethynylphenyl)acetamido)-1,2-dihydroxypropyl)-4-hydroxy-5-(2-hydroxyacetamido)-2-(2-(2-(2-methoxyethoxy)ethoxy)ethoxy)tetrahydro-2H-pyran-2-carboxylic acid]
